What all share (experiment): KINOMEscan competitive binding, whole panel
Test [1] addresses T1, panel of 203 kinases (Homo sapiens, UniProt Q15303).
T1 construct: purchased DiscoverX (KINOMEscan)
Conditions: 10 µM, n=1; kinase ERBB4; read-out: Percent inhibition ERBB4. In a few lines: (§1)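 Kinases were expressed as T7 bacteriophage fusions, and test compounds competed with immobilized ATP-site probe ligands for binding. Kinase remaining bound to the solid-support probe was quantified, and values are given as percentage inhibition.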

Test [2] deals with T2, panel of 203 kinases (Homo sapiens, UniProt P29317).
T2 construct: purchased DiscoverX (KINOMEscan)
As to conditions: 10 µM, n=1; kinase EPHA2; read-out: Percent inhibition EPHA2. Summed up: as §1

The target of test [3] is T3, panel of 203 kinases (Homo sapiens, UniProt P07333).
T3 construct: purchased DiscoverX (KINOMEscan)
Conditions: 10 µM, n=1; kinase CSF1R; read-out: Percent inhibition CSF1R. In a few lines:
as §1

The target in test [4] is T4, panel of 203 kinases (Homo sapiens, UniProt P00519).
T4 construct: purchased DiscoverX (KINOMEscan)
Conditions: 10 µM, n=1; kinase ABL1; read-out: Percent inhibition ABL1. In a few lines: as §1

Test [5] has as its target T5, panel of 203 kinases (Homo sapiens, UniProt P49840).
T5 construct: purchased DiscoverX (KINOMEscan)
As to conditions: 10 µM, n=1; kinase GSK3A; read-out: Percent inhibition GSK3A. In a few lines:
as §1

In test [6] the target is T6, panel of 203 kinases (Homo sapiens, UniProt P51955).
T6 construct: purchased DiscoverX (KINOMEscan)
T6 sequence (P51955 1-445): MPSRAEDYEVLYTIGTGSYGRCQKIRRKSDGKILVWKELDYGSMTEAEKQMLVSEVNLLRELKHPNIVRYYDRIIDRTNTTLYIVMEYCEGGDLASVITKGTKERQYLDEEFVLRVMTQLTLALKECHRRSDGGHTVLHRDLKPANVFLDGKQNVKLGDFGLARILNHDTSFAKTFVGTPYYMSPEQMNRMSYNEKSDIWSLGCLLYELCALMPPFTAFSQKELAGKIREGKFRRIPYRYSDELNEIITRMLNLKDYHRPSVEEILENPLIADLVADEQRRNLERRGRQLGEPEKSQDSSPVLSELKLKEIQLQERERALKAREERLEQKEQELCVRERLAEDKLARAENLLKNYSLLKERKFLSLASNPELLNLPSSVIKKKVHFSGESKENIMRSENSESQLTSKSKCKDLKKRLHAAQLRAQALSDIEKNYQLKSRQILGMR
Conditions: 10 µM, n=1; kinase NEK2; read-out: Percent inhibition NEK2. Summed up: as §1

Test [7] has as its target T7, panel of 203 kinases (Homo sapiens, UniProt Q9UEE5).
T7 construct: purchased DiscoverX (KINOMEscan)
T7 sequence (Q9UEE5 1-414): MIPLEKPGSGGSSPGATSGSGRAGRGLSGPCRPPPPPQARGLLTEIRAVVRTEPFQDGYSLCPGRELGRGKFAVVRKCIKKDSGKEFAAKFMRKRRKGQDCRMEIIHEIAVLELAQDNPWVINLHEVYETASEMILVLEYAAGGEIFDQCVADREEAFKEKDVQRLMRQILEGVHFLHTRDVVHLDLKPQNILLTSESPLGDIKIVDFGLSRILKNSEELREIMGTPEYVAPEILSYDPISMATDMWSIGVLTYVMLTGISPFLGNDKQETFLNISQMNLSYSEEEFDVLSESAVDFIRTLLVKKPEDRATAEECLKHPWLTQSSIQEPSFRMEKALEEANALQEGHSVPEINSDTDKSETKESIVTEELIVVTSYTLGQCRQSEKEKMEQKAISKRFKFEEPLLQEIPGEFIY
As to conditions: 10 µM, n=1; kinase DRAK1; read-out: Percent inhibition DRAK1. Summed up:
as §1

The target of test [8] is T8, panel of 203 kinases (Homo sapiens, UniProt Q96RR4).
T8 construct: purchased DiscoverX (KINOMEscan)
Conditions: 10 µM, n=1; kinase CAMKK2; read-out: Percent inhibition CAMKK2. In a few lines:
as §1

Test [9] addresses T9, panel of 203 kinases (Homo sapiens, UniProt O94768).
T9 construct: purchased DiscoverX (KINOMEscan)
T9 sequence (O94768 1-372): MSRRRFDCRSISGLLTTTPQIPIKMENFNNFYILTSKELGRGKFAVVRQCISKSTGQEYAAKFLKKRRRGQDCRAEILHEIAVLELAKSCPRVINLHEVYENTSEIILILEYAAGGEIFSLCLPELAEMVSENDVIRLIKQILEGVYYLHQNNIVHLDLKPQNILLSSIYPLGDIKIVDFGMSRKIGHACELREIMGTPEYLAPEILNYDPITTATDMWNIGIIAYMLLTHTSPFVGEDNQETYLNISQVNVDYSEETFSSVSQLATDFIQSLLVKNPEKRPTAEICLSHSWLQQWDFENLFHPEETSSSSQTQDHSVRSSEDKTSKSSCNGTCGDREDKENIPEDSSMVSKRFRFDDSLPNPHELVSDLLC
As to conditions: 10 µM, n=1; kinase DRAK2; read-out: Percent inhibition DRAK2. Summed up: as §1

T3 sequence (P07333 20-972): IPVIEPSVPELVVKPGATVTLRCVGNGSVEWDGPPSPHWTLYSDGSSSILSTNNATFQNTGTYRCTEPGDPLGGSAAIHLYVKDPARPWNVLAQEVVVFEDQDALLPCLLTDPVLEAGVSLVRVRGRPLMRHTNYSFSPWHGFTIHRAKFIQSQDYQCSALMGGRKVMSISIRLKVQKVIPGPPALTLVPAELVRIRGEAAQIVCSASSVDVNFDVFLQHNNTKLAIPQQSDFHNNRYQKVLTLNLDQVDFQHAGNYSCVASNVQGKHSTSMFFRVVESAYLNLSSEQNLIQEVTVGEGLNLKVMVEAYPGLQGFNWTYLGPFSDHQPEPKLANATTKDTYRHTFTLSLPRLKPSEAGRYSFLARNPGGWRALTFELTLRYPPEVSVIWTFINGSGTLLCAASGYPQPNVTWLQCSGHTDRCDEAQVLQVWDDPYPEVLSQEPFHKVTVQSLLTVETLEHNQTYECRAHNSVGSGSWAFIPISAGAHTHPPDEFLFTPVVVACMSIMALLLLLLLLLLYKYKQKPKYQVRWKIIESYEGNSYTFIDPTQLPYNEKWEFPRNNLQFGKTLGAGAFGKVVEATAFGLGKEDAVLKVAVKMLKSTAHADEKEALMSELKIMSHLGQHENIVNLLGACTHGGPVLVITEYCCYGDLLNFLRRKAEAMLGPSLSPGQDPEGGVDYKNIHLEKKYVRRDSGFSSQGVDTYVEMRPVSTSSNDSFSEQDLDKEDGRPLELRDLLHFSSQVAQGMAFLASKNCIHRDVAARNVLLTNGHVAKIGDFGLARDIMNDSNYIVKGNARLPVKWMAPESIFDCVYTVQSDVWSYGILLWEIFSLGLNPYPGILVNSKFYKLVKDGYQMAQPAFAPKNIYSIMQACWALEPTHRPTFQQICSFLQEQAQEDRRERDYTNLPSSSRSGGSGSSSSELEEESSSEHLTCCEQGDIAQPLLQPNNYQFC
T1 sequence (Q15303 26-1308): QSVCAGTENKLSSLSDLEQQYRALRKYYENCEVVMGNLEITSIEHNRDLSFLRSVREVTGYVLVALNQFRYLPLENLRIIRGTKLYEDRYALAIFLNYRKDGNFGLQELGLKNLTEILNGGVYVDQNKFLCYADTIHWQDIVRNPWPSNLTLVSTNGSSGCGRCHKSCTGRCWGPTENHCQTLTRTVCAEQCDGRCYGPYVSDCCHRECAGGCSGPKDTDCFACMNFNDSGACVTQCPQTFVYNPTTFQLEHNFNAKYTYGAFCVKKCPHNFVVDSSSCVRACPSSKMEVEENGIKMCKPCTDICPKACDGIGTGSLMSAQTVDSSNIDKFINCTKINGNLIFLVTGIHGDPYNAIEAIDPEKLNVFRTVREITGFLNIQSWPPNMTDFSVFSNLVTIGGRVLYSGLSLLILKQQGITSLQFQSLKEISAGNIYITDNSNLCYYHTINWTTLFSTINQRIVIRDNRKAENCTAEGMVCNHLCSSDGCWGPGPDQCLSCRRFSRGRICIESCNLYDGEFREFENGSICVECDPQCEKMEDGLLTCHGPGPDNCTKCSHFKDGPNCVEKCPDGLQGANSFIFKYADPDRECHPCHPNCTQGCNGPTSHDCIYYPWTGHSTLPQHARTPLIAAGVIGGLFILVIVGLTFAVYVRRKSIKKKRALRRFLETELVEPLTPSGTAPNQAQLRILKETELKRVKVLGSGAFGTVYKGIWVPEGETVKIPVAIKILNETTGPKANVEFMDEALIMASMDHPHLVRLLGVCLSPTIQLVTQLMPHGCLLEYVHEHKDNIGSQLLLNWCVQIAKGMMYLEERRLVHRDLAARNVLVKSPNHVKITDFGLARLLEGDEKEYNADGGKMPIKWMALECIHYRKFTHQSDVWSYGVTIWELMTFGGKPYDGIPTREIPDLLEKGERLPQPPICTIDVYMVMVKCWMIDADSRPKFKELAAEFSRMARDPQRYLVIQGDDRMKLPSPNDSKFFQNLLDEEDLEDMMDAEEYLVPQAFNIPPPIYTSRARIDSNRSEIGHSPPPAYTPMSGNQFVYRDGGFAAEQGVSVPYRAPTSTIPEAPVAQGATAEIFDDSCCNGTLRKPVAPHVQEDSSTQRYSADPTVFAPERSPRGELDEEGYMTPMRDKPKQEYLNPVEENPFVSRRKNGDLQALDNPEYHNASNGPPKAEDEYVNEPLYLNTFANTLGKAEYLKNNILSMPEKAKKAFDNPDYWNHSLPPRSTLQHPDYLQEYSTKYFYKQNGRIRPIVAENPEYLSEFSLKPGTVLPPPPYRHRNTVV
T5 sequence (P49840 whole entry): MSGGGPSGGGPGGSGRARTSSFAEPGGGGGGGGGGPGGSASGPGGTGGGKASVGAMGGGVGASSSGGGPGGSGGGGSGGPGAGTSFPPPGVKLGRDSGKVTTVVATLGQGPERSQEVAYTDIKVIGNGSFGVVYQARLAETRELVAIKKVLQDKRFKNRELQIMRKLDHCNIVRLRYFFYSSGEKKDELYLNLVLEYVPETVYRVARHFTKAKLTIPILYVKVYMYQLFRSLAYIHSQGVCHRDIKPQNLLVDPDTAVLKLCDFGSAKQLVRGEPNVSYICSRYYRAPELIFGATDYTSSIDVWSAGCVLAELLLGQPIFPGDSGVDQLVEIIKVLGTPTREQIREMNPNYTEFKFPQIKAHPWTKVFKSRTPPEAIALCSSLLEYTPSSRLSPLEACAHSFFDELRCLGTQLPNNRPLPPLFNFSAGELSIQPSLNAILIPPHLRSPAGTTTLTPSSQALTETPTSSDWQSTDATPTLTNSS
T2 sequence (P29317 24-976): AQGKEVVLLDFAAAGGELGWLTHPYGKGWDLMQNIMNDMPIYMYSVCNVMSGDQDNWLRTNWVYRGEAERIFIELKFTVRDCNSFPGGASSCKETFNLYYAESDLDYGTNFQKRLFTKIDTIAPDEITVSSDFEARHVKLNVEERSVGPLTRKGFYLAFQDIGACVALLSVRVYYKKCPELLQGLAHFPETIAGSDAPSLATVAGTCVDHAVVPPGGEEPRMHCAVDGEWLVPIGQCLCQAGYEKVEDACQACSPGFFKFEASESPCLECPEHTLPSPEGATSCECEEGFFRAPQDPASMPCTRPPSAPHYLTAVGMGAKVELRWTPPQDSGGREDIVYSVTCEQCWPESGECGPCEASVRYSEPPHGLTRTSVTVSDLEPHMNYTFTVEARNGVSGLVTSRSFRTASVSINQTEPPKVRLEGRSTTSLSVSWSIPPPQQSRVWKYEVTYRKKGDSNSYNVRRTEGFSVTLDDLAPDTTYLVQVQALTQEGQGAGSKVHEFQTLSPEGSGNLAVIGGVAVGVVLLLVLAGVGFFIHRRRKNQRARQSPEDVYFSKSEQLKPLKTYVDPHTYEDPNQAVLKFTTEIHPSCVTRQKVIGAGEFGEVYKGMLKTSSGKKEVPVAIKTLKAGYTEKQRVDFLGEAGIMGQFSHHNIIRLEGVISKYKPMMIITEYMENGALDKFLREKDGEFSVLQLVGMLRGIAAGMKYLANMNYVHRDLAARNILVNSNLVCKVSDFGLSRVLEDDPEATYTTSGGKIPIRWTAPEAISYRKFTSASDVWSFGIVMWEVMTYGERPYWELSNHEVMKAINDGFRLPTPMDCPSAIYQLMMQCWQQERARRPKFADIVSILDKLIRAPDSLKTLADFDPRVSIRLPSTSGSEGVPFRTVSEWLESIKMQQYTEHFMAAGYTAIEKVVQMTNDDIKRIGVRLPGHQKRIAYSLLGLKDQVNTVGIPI
T4 sequence (P00519 whole entry): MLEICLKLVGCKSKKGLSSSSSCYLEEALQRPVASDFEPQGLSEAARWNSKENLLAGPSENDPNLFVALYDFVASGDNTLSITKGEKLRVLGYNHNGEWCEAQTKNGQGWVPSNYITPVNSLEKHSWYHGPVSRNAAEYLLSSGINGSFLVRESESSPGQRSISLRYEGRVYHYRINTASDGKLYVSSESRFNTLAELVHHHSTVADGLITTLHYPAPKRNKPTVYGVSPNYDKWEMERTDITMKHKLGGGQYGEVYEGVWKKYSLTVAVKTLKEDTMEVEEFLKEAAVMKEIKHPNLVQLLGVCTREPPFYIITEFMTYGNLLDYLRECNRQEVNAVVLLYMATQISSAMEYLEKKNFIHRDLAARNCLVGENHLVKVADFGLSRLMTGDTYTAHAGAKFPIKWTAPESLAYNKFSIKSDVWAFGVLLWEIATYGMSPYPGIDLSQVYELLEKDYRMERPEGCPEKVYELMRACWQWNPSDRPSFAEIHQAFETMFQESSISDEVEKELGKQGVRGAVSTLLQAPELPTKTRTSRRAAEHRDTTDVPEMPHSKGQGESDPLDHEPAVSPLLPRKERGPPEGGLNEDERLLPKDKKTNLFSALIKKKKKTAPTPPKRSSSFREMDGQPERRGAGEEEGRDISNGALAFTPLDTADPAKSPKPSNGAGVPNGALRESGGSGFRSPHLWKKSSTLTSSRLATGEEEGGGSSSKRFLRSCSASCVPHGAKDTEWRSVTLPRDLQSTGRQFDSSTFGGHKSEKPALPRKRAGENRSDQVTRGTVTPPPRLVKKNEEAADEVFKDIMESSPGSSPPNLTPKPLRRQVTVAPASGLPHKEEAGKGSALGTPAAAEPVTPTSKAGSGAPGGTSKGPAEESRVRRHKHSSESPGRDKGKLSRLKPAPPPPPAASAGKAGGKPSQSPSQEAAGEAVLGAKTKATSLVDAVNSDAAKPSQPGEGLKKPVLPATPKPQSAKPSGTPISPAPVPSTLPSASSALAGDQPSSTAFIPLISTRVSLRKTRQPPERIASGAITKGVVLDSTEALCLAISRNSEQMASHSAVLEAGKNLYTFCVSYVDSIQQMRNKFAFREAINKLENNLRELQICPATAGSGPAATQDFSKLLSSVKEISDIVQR

Turning to `CN1CCN(c2ccc(Nc3nccc(-c4cnn5ncccc45)n3)cc2C#N)CC1` [Compound 1], the inhibition at 10 µM on panel of 203 kinases [1] was determined as 0%; on panel of 203 kinases [2] it was 0%; on panel of 203 kinases [3], 99.4%; on panel of 203 kinases [4], 87.3%; at panel of 203 kinases [5] it was 100%; at panel of 203 kinases [6] it was 98.5%. Also, the values for the inhibition at 10 µM at panel of 203 kinases [7], on panel of 203 kinases [8] and on panel of 203 kinases [9] were 100%, 98% and 82.4%, respectively.
With `COc1ccc(Nc2nccc(-c3cnn4ncccc34)n2)cc1` [Compound 2], the inhibition at 10 µM on panel of 203 kinases [1] was 0%; at panel of 203 kinases [2], 0%; at panel of 203 kinases [3] it was 99.8%; at panel of 203 kinases [4], 0%; on panel of 203 kinases [5] it was 100%; on panel of 203 kinases [6] it was 99.9%. Moreover, the inhibition at 10 µM was determined as 98.4% on panel of 203 kinases [7], 96.3% at panel of 203 kinases [8] and 88.6% on panel of 203 kinases [9].
For the molecule `Cc1ccc(O)cc1Nc1ccnc(Nc2cccc(C(N)=O)c2)n1` [Compound 3], the inhibition at 10 µM at panel of 203 kinases [1] worked out at 90.9%; at panel of 203 kinases [2], 99.9%; at panel of 203 kinases [3], 98.9%; on panel of 203 kinases [4] it was 99.7%; at panel of 203 kinases [5] it was 69.7%; on panel of 203 kinases [6] it was 0%. The inhibition at 10 µM at panel of 203 kinases [7], at panel of 203 kinases [8] and at panel of 203 kinases [9] was 0% throughout.
Take `Cc1ccc(O)cc1N(C)c1ccnc(Nc2cccc(S(N)(=O)=O)c2)n1` [Compound 4]: the inhibition at 10 µM on panel of 203 kinases [1] was found to be 87.3%; at panel of 203 kinases [2] it was 99.5%; at panel of 203 kinases [3], 100%; at panel of 203 kinases [4], 99.8%; on panel of 203 kinases [5] it was 91.3%; at panel of 203 kinases [6], 0%. In addition, the inhibition at 10 µM at panel of 203 kinases [7], at panel of 203 kinases [8] and on panel of 203 kinases [9] was 0% throughout.
For `Fc1cccc(COc2ccc(Nc3ncnc4c3CN(CCN3CCOCC3)CC4)cc2Cl)c1` [Compound 6], the inhibition at 10 µM on panel of 203 kinases [1], at panel of 203 kinases [2], on panel of 203 kinases [3], at panel of 203 kinases [4], at panel of 203 kinases [5] and on panel of 203 kinases [6] was 0% in each case. Moreover, the inhibition at 10 µM at panel of 203 kinases [7], at panel of 203 kinases [8] and at panel of 203 kinases [9] was 0% each time.
Turning to `COc1cc(Nc2nccc(-c3sc(N)nc3-c3cccc(NC(=O)c4c(F)cccc4F)c3)n2)cc(OC)c1OC` [Compound 7], the inhibition at 10 µM on panel of 203 kinases [1] stood at 100%; at panel of 203 kinases [2], 99.4%; at panel of 203 kinases [3], 100%; at panel of 203 kinases [4], 99.7%; at panel of 203 kinases [5], 0%; at panel of 203 kinases [6], 100%. For the same molecule, the inhibition at 10 µM at panel of 203 kinases [7], at panel of 203 kinases [8] and at panel of 203 kinases [9] was 0% in each case.
As for `C[C@@H](Oc1cc(-c2cnc3ccccn23)sc1C(N)=O)c1ccccc1Cl` [Compound 8], the inhibition at 10 µM at panel of 203 kinases [1] was determined as 0%; on panel of 203 kinases [2] it was 0%; on panel of 203 kinases [3] it was 0%; on panel of 203 kinases [4] it was 0%; on panel of 203 kinases [5], 0%; at panel of 203 kinases [6], 99.4%. Further, the inhibition at 10 µM at panel of 203 kinases [7] was found to be 86.1%; on panel of 203 kinases [8], 81.2%; at panel of 203 kinases [9] it was 0%.
`c1ccc(COc2cccc(-c3ccnc4[nH]ccc34)c2)cc1` [Compound 9]: the inhibition at 10 µM at panel of 203 kinases [1], on panel of 203 kinases [2], on panel of 203 kinases [3], at panel of 203 kinases [4], on panel of 203 kinases [5] and at panel of 203 kinases [6] was 0% throughout. In addition, the inhibition at 10 µM on panel of 203 kinases [7], at panel of 203 kinases [8] and at panel of 203 kinases [9] was 0% in each case.
Consider `Clc1ccc(Nc2ncc(-c3ccccc3)s2)cc1` [Compound 10], for which the inhibition at 10 µM on panel of 203 kinases [1], at panel of 203 kinases [2], at panel of 203 kinases [3], at panel of 203 kinases [4], at panel of 203 kinases [5] and at panel of 203 kinases [6] was 0% in each case. Besides, the inhibition at 10 µM at panel of 203 kinases [7], on panel of 203 kinases [8] and on panel of 203 kinases [9] was 0% in each case.
Take `Nc1ncc2c(-c3ccncc3)c[nH]c2n1` [Compound 11]: the inhibition at 10 µM at panel of 203 kinases [1], at panel of 203 kinases [2], on panel of 203 kinases [3], on panel of 203 kinases [4], at panel of 203 kinases [5] and at panel of 203 kinases [6] was 0% throughout. Further, the inhibition at 10 µM on panel of 203 kinases [7] was found to be 92.8%; at panel of 203 kinases [8], 0%; at panel of 203 kinases [9] it was 89.7%.

The term inhibition denotes the change of the read-out against control, counted positive when it falls.

These data come from publication PMC9927415, “Tyrosine Kinase Inhibitors Display Potent Activity against Cryptosporidium parvum” (Microbiology Spectrum, 2022).
